Measurements reported in paper PMC9866191, “Novel 9-Benzylaminoacridine Derivatives as Dual Inhibitors of Phosphodiesterase 5 and Topoisomerase II for the Treatment of Colon Cancer” (Molecules, 2023).

Columns and labels:
[1] = tested on: HOP-62; assay: NCI-60 one-dose screen; assay type: cell-based; details: Homo sapiens; HOP-62, Non-small cell lung panel; single dose 10^−5 M; read-out: Growth inhibition %
Description: (§1) The newly synthesized compounds were screened for their in vitro anticancer activity at the Developmental Therapeutic Program (DTP) of the National Cancer Institute (NCI). The screening involved a panel of 60 human tumor cell lines consisting of 9 tissue types to screen for potential anti-cancer agents. The primary screening of submitted compounds was performed by testing a single dose (10^−5 M) in the full NCI-60 panel. The detailed % inhibition by the tested compounds against the 60 cell lines is shown in Tables S1–S3 in the Supporting Information.

[2] = tested on: UACC-62; assay: NCI-60 one-dose screen; assay type: cell-based; details: Homo sapiens; UACC-62, Melanoma panel; single dose 10^−5 M; read-out: Growth inhibition %
Description: as §1

[3] = tested on: NCI-H322M; assay: NCI-60 one-dose screen; assay type: cell-based; details: Homo sapiens, Non-small cell lung panel, single dose 10^−5 M, read-out: Growth inhibition %
Description: as §1

[4] = tested on: MDA-MB-468; assay: NCI-60 one-dose screen; assay type: cell-based; details: Homo sapiens; MDA-MB-468, Breast Cancer panel; single dose 10^−5 M; read-out: Growth inhibition %
Description: as §1

[5] = tested on: K-562; assay: NCI-60 one-dose screen; assay type: cell-based; details: Homo sapiens, K562; K-562, Leukemia panel; single dose 10^−5 M; read-out: Growth inhibition %
Description: as §1

[6] = tested on: MDA-MB-231/ATCC; assay: NCI-60 one-dose screen; assay type: cell-based; details: Homo sapiens, Breast Cancer panel, single dose 10^−5 M, read-out: Growth inhibition %
Description: as §1

[7] = tested on: OVCAR-3; assay: NCI-60 one-dose screen; assay type: cell-based; details: Homo sapiens; OVCAR-3, Ovarian Cancer panel; single dose 10^−5 M; read-out: Growth inhibition %
Description: as §1

[8] = tested on: TK-10; assay: NCI-60 one-dose screen; assay type: cell-based; details: Homo sapiens; TK-10, Renal Cancer panel; single dose 10^−5 M; read-out: Growth inhibition %
Description: as §1

[9] = tested on: A549/ATCC; assay: NCI-60 one-dose screen; assay type: cell-based; details: Homo sapiens, Non-small cell lung panel, single dose 10^−5 M, read-out: Growth inhibition %
Description: as §1

[10] = tested on: OVCAR-8; assay: NCI-60 one-dose screen; assay type: cell-based; details: Homo sapiens; OVCAR-8, Ovarian Cancer panel; single dose 10^−5 M; read-out: Growth inhibition %
Description: as §1

[11] = tested on: MALME-3M; assay: NCI-60 one-dose screen; assay type: cell-based; details: Homo sapiens, Melanoma panel, single dose 10^−5 M, read-out: Growth inhibition %
Description: as §1

[12] = tested on: SN12C; assay: NCI-60 one-dose screen; assay type: cell-based; details: Homo sapiens, Renal Cancer panel, single dose 10^−5 M, read-out: Growth inhibition %
Description: as §1

[13] = tested on: UO-31; assay: NCI-60 one-dose screen; assay type: cell-based; details: Homo sapiens; UO-31, Renal Cancer panel; single dose 10^−5 M; read-out: Growth inhibition %
Description: as §1

[14] = tested on: UACC-257; assay: NCI-60 one-dose screen; assay type: cell-based; details: Homo sapiens; UACC-257, Melanoma panel; single dose 10^−5 M; read-out: Growth inhibition %
Description: as §1

[15] = tested on: COLO 205; assay: NCI-60 one-dose screen; assay type: cell-based; details: Homo sapiens; COLO 205, Colon Cancer panel; single dose 10^−5 M; read-out: Growth inhibition %
Description: as §1

[16] = tested on: HCC-2998; assay: NCI-60 one-dose screen; assay type: cell-based; details: Homo sapiens; HCC-2998, Colon Cancer panel; single dose 10^−5 M; read-out: Growth inhibition %
Description: as §1

[17] = tested on: SK-MEL-2; assay: NCI-60 one-dose screen; assay type: cell-based; details: Homo sapiens; SK-MEL-2, Melanoma panel; single dose 10^−5 M; read-out: Growth inhibition %
Description: as §1

[18] = tested on: HS 578T; assay: NCI-60 one-dose screen; assay type: cell-based; details: Homo sapiens, Breast Cancer panel, single dose 10^−5 M, read-out: Growth inhibition %
Description: as §1

[19] = tested on: U251; assay: NCI-60 one-dose screen; assay type: cell-based; details: Homo sapiens, U-251; U251, CNS Cancer panel; single dose 10^−5 M; read-out: Growth inhibition %
Description: as §1

[20] = tested on: HCT-116; assay: NCI-60 one-dose screen; assay type: cell-based; details: Homo sapiens, read-out: Growth inhibition %
Description: as §1

[21] = tested on: SW-620; assay: NCI-60 one-dose screen; assay type: cell-based; details: Homo sapiens; SW-620, Colon Cancer panel; single dose 10^−5 M; read-out: Growth inhibition %
Description: as §1

[22] = tested on: KM12; assay: NCI-60 one-dose screen; assay type: cell-based; details: Homo sapiens; KM12, Colon Cancer panel; single dose 10^−5 M; read-out: Growth inhibition %
Description: as §1

[23] = tested on: SNB-19; assay: NCI-60 one-dose screen; assay type: cell-based; details: Homo sapiens; SNB-19, CNS Cancer panel; single dose 10^−5 M; read-out: Growth inhibition %
Description: as §1

[24] = tested on: RPMI-8226; assay: NCI-60 one-dose screen; assay type: cell-based; details: Homo sapiens; RPMI-8226, Leukemia panel; single dose 10^−5 M; read-out: Growth inhibition %
Description: as §1

[25] = tested on: RXF 393; assay: NCI-60 one-dose screen; assay type: cell-based; details: Homo sapiens; RXF 393, Renal Cancer panel; single dose 10^−5 M; read-out: Growth inhibition %
Description: as §1

[26] = tested on: SF-539; assay: NCI-60 one-dose screen; assay type: cell-based; details: Homo sapiens; SF-539, CNS Cancer panel; single dose 10^−5 M; read-out: Growth inhibition %
Description: as §1

[27] = tested on: NCI-H226; assay: NCI-60 one-dose screen; assay type: cell-based; details: Homo sapiens; NCI-H226, Non-small cell lung panel; single dose 10^−5 M; read-out: Growth inhibition %
Description: as §1

[28] = target: T1, PDE5A (Homo sapiens, UniProt O76074); assay: Phosphodiesterase 5 HTRF cGMP assay; assay type: biochemical; details: for IC50: means ± S.D. (n = 4), read-out: PDE5 IC50; for inhibition at 10 µM: read-out: PDE5 % Inhibition at 10 μM
T1 construct: purchased BPS Bioscience, San Diego, CA, USA
Description: All the synthesized acridine derivatives were tested for their in vitro ability to inhibit PDE5A at a screening dose of 10 µM.
The enzyme activities of phosphodiesterase 5 (PDE5) were measured using an HTRF cGMP assay kit (Cisbio, Codolet, France). […] Afterward, the HTRF reagent (cGMP-d2 and anti-cGMP-cryptate) was added for 1 h at 25 °C, and PDE activity was assayed on an HTRF reader (Tecan Infinite F200 Pro).

[29] = tested on: LOX IMVI; assay: NCI-60 one-dose screen; assay type: cell-based; details: Homo sapiens, Melanoma panel, single dose 10^−5 M, read-out: Growth inhibition %
[30] = tested on: CCD-966SK; assay: MTT cell proliferation assay, CCD-966SK; details: CCD966SK skin fibroblast, 72 h MTT; for IC50: read-out: IC50 μM
Description: In the MTT assay, 96-well culture plates were used. A total of 7 × 10^4 cells per well were seeded, and test materials were added to the cells at various concentrations [47, 48]. Human cancer and non-cancer cell lines were purchased commercially from the American Type Culture Collection (ATCC). After 72 h, the cytotoxicity of the compounds and paclitaxel (as a positive control group) was detected using the MTT method (thiazolyl blue tetrazolium bromide, Sigma-M2128). Absorbance values at 570 and 620 nm (OD = OD570–OD620) were measured using an ELISA reader (Anthos Labtec Instruments, Salzburg, Austria).

SMILES	inhibition at 10 µM [1]	inhibition at 10 µM [2]	inhibition at 10 µM [3]	inhibition at 10 µM [4]	inhibition at 10 µM [5]	inhibition at 10 µM [6]	inhibition at 10 µM [7]	inhibition at 10 µM [8]	inhibition at 10 µM [9]	inhibition at 10 µM [10]	inhibition at 10 µM [11]	inhibition at 10 µM [12]	inhibition at 10 µM [13]	inhibition at 10 µM [14]	inhibition at 10 µM [15]	inhibition at 10 µM [16]	inhibition at 10 µM [17]	inhibition at 10 µM [18]	inhibition at 10 µM [19]	inhibition at 10 µM [20]	other results
c1ccc(CNc2c3ccccc3nc3ccccc23)cc1 [Compound 1, Acridin-9-yl-benzyl-amine]	54%	39%	53.7%	80.7%	87.7%	42.1%	48.3%	51.3%	71.5%	73.9%	62.6%	62.5%	76.2%	47.3%	92.7%	61.8%	39.2%	43.9%	61.5%	91.6%	inhibition at 10 µM [21]: 75.5%; inhibition at 10 µM [22]: 69.5%; inhibition at 10 µM [23]: 60.6%; inhibition at 10 µM [24]: 92.3%; inhibition at 10 µM [25]: 58.1%; inhibition at 10 µM [26]: 76%; inhibition at 10 µM [27]: 48.3%; IC50 [28]: 9.33 ± 4.62 µM; inhibition at 10 µM [28]: 52.2 ± 5.87%; inhibition at 10 µM [29]: 80.2%; % Inhibition at 10 µM [30]: 47.97 ± 1.96%
Cc1ccccc1CNc1c2ccccc2nc2ccccc12 [Compound 2, Acridin-9-yl-(2-methylbenzyl)-amine]	71.9%	53.3%	71%	94.2%	95%	60.1%	68.7%	61.4%	80.3%	79%	84.8%	75.7%	84.5%	67.3%	119%	83.8%	59.9%	64.3%	78.7%	92.1%	inhibition at 10 µM [21]: 86.2%; inhibition at 10 µM [22]: 83.1%; inhibition at 10 µM [23]: 72.9%; inhibition at 10 µM [24]: 109%; inhibition at 10 µM [25]: 92.2%; inhibition at 10 µM [26]: 96.7%; inhibition at 10 µM [27]: 68.5%; IC50 [28]: 9.87 ± 2.06 µM; inhibition at 10 µM [28]: 50.4 ± 3.68%; inhibition at 10 µM [29]: 90.9%; % Inhibition at 10 µM [30]: 59.74 ± 0.55%; IC50 [30]: 4.18 ± 0.36 µM
Cc1cccc(CNc2c3ccccc3nc3ccccc23)c1 [Compound 3, Acridin-9-yl-(3-methylbenzyl)-amine]	59.6%	57.2%	59.7%	100%	98.1%	61.3%	69.2%	61.6%	77.4%	79.7%	85.9%	73.9%	85.3%	63.8%	116%	96.4%	62%	69.7%	76.3%	90.2%	inhibition at 10 µM [21]: 82.8%; inhibition at 10 µM [22]: 74.4%; inhibition at 10 µM [23]: 70.3%; inhibition at 10 µM [24]: 120%; inhibition at 10 µM [25]: 102%; inhibition at 10 µM [26]: 88.3%; inhibition at 10 µM [27]: 59.4%; IC50 [28]: 6.4 ± 1.89 µM; inhibition at 10 µM [28]: 59.3 ± 6.18%; inhibition at 10 µM [29]: 93.8%; % Inhibition at 10 µM [30]: 54.31 ± 0.98%; IC50 [30]: 8.51 ± 0.07 µM
